Target: GLP-1R (Homo sapiens, UniProt P43220)
Test: GLP-1R agonistic activity by One-Lite luciferase assay in HEK293-GLP-1R-luc cells (Example 59)
Assay type: cell-based
Conditions: 6 h incubation, read-out: cAMP EC50
Procedure: The agonistic activities of the compounds of the present disclosure on GLP-1R were evaluated by detecting the generation of cAMP.
• (1) Cell line: HEK293-GLP-1R-luc Stable Cell Line (Cobioer, CBP71117); • (2) Culture medium: DMEM+10% FBS (Gibco); • (3) Kit: One-Lite™ kit Luciferase Assay System (Vazyme). 2. Experimental Procedures • (1) HEK293-GLP1R cells were inoculated in a 96-well plate at a density of 30000 cells per well; • (2) 10× working solution of each compound was formulated; • (3) 10 μL of 10× working solution of each compound was added to corresponding well and incubated at 37° C. for 6 h; • (4) 100 μL of One-Lite Luciferase Assay Substrate formulated using One-Lite Luciferase Assay Buffer was added to each well; • (5) The plate was incubated at room temperature for 3 min; • (6) The plate was read by a multimode microplate reader to detect chemiluminescence. 3. Data Analysis • (1) % Activity was calculated by the following formula: % Activity=100−(Signalcmpd−SignalAve-PC)/(SignalAve-VC−SignalAve-PC)×100 • (2) The dose-response curve was plotted to calculate EC50: Y=Bottom+(Top−Bottom)/(1+10^(Log EC50−X)*HillSlope)) • X: log of agonist concentration; Y: Activity. 4. Experimental Results

Sequence of GLP-1R (P43220 24-463): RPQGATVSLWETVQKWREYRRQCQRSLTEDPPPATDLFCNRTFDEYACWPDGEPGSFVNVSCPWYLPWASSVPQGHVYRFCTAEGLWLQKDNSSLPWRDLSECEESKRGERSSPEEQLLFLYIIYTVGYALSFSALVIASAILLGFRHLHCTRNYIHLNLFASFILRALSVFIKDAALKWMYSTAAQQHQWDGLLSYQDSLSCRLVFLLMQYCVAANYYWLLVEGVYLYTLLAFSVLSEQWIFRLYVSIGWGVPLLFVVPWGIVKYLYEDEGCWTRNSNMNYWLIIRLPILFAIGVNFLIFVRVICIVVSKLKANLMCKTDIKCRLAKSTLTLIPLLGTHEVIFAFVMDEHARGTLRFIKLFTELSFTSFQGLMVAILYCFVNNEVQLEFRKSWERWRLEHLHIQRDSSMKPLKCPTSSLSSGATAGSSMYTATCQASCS

Structure (SMILES) | EC50 [nM]
Cc1cc(-n2nc3c(c2-n2ccn(-c4ccc5c(cnn5C)c4F)c2=O)[C@H](C)N(C(=O)c2cc4cc([C@H]5CCOC(C)(C)C5)ccc4n2[C@@]2(c4noc(=O)[nH]4)C[C@@H]2C)CC32CCN(C)C2)cc(C)c1F (stereo partly shown) [Compound 79] | ≤ 20
Cc1cc(-n2nc3c(c2-n2ccn(-c4ccc5c(cnn5C)c4F)c2=O)[C@H](C)N(C(=O)c2cc4cc([C@H]5CCOC(C)(C)C5)ccc4n2[C@@]2(c4noc(=O)[nH]4)C[C@@H]2C)CC32CN(S(C)(=O)=O)C2)cc(C)c1F [Compound 168] | ≤ 20
Cc1cc(-n2nc3c(c2-n2ccn(-c4ccc5c(cnn5C)c4F)c2=O)[C@H](C)N(C(=O)c2cc4cc([C@H]5CCOC(C)(C)C5)ccc4n2[C@@]2(c4noc(=O)[nH]4)C[C@@H]2C)CC32CC(C)(O)C2)cc(C)c1F (stereo partly shown) [Compound 179] | ≤ 20
Cc1cc(-n2nc3c(c2-n2ccn(-c4ccc5c(cnn5C)c4F)c2=O)[C@H](C)N(C(=O)c2cc4cc([C@H]5CCOC(C)(C)C5)ccc4n2[C@@]2(c4noc(=O)[nH]4)C[C@@H]2C)CC32CCC2)cc(C)c1F [Compound 23] | ≤ 20
Cc1cc(-n2nc3c(c2-n2ccn(-c4ccc5c(cnn5C)c4F)c2=O)[C@H](C)N(C(=O)c2cc4cc([C@H]5CCOC(C)(C)C5)ccc4n2[C@@]2(c4noc(=O)[nH]4)C[C@@H]2C)CC32CS(=O)(=O)C2)cc(C)c1F [Compound 191] | ≤ 20
Cc1cc(-n2nc3c(c2-n2ccn(-c4ccc5c(cnn5C)c4F)c2=O)[C@H](C)N(C(=O)c2cc4cc([C@H]5CCOC(C)(C)C5)ccc4n2[C@@]2(c4noc(=O)[nH]4)C[C@@H]2C)CC32CC(O)C2)cc(C)c1F (stereo partly shown) [Compound 181] | ≤ 20
Cc1cc(-n2nc3c(c2-n2ccn(-c4ccc5c(cnn5C)c4F)c2=O)[C@H](C)N(C(=O)c2cc4cc([C@H]5CCOC(C)(C)C5)ccc4n2[C@@]2(c4noc(=O)[nH]4)C[C@@H]2C)CC32CCC(O)CC2)cc(C)c1F (stereo partly shown) [Compound 199] | ≤ 20
Cc1cc(-n2nc3c(c2-n2ccn(-c4ccc5c(cnn5C)c4F)c2=O)[C@H](C)N(C(=O)c2cc4cc([C@H]5CCOC(C)(C)C5)ccc4n2[C@@]2(c4noc(=O)[nH]4)C[C@@H]2C)CC32CCC(=O)CC2)cc(C)c1F [Compound 198] | ≤ 20
COC1CCC2(CC1)CN(C(=O)c1cc3cc([C@H]4CCOC(C)(C)C4)ccc3n1[C@@]1(c3noc(=O)[nH]3)C[C@@H]1C)[C@@H](C)c1c2nn(-c2cc(C)c(F)c(C)c2)c1-n1ccn(-c2ccc3c(cnn3C)c2F)c1=O (stereo partly shown) [Compound 202] | ≤ 20
Cc1cc(-n2nc3c(c2-n2ccn(-c4ccc5c(cnn5C)c4F)c2=O)[C@H](C)N(C(=O)c2cc4cc([C@H]5CCOC(C)(C)C5)ccc4n2[C@@]2(c4noc(=O)[nH]4)C[C@@H]2C)CC32CN(C(=O)C(F)(F)F)C2)cc(C)c1F [Compound 167] | ≤ 20
Cc1cc(-n2nc3c(c2-n2ccn(-c4ccc5c(cnn5C)c4F)c2=O)[C@H](C)N(C(=O)c2cc4cc([C@H]5CCOC(C)(C)C5)ccc4n2[C@@]2(c4noc(=O)[nH]4)C[C@@H]2C)CC32CC(O)C(O)C2)cc(C)c1F (stereo partly shown) [Compound 213] | ≤ 20
Cc1cc(-n2nc3c(c2-n2ccn(-c4ccc5c(cnn5C)c4F)c2=O)[C@H](C)N(C(=O)c2cc4cc([C@H]5CCOC(C)(C)C5)ccc4n2[C@@]2(c4noc(=O)[nH]4)C[C@@H]2C)CC32CSC2)cc(C)c1F [Compound 189] | ≤ 20
C[C@H]1c2c(nn(-c3ccc(F)c(C4CC4)c3)c2-n2ccn(-c3ccc4c(cnn4C)c3F)c2=O)C2(CC2)CN1C(=O)c1cc2cc([C@H]3CCOC(C)(C)C3)ccc2n1[C@@]1(c2noc(=O)[nH]2)C[C@@H]1C [Compound 171] | ≤ 20
Cc1cc(-n2nc3c(c2-n2ccn(-c4ccc5c(cnn5C)c4F)c2=O)[C@H](C)N(C(=O)c2cc4cc([C@H]5CCOC(C)(C)C5)ccc4n2[C@@]2(c4noc(=O)[nH]4)C[C@@H]2C)CC32CCOC2)cc(C)c1F (stereo partly shown) [Compound 29] | ≤ 20
Cc1cc(-n2nc3c(c2-n2ccn(-c4ccc5c(cnn5C)c4F)c2=O)[C@H](C)N(C(=O)c2cn4cc(C5CCOC(C)(C)C5)ccc4c2C2(c4noc(=O)[nH]4)CC2)CC32CC2)cc(C)c1F (stereo partly shown) [Compound 196] | ≤ 20
Cc1cc(-n2nc3c(c2-n2ccn(-c4ccc5c(cnn5C)c4F)c2=O)[C@H](C)N(C(=O)c2cc4cc([C@H]5CCOC(C)(C)C5)ccc4n2[C@@]2(c4noc(=O)[nH]4)C[C@@H]2C)CC32CCN(C(=O)CN)CC2)cc(C)c1F [Compound 161] | ≤ 20
COC1CC2(CC1OC)CN(C(=O)c1cc3cc([C@H]4CCOC(C)(C)C4)ccc3n1[C@@]1(c3noc(=O)[nH]3)C[C@@H]1C)[C@@H](C)c1c2nn(-c2cc(C)c(F)c(C)c2)c1-n1ccn(-c2ccc3c(cnn3C)c2F)c1=O (stereo partly shown) [Compound 214] | ≤ 20

Structure (SMILES) | EC50 [nM]
Cc1cc(-n2nc3c(c2-n2ccn(-c4ccc5c(cnn5C)c4F)c2=O)[C@H](C)N(C(=O)c2cc4cc([C@H]5CCOC(C)(C)C5)ccc4n2[C@@]2(c4noc(=O)[nH]4)C[C@@H]2C)CC32CCC(F)C2)cc(C)c1F (stereo partly shown) [Compound 211] | ≤ 20
C[C@H]1c2c(nn(-c3ccc(F)c(C4CC4)c3)c2-n2ccn(-c3ccc4c(cnn4C)c3F)c2=O)C2(CC2)CN1C(=O)c1cc2cc(C3CCOC(C)(C)C3)ccn2c1C1(c2noc(=O)[nH]2)CC1 (single isomer, unassigned) [Compound 186-B] | 20 to 100
Cc1cc(-n2nc3c(c2-n2ccn(-c4ccc5c(cnn5C)c4F)c2=O)[C@H](C)N(C(=O)c2cc4cc([C@H]5CCOC(C)(C)C5)ccc4n2[C@@]2(c4noc(=O)[nH]4)C[C@@H]2C)CC32CC(C)C2)cc(C)c1F (stereo partly shown) [Compound 219] | ≤ 20
Cc1cc(-n2nc3c(c2-n2ccn(-c4ccc5c(cnn5C)c4F)c2=O)[C@H](C)N(C(=O)c2cc4cc([C@H]5CCOC(C)(C)C5)ccc4n2[C@@]2(c4noc(=O)[nH]4)C[C@@H]2C)CC32CC(OC(F)F)C2)cc(C)c1F (stereo partly shown) [Compound 194] | ≤ 20
Cc1cc(-n2nc3c(c2-n2ccn(-c4ccc5c(cnn5C)c4F)c2=O)[C@H](C)N(C(=O)c2cc4cc([C@H]5CCOC(C)(C)C5)ccc4n2[C@@]2(c4noc(=O)[nH]4)C[C@@H]2C)CC32CCCN(C)C2)cc(C)c1F (single isomer, unassigned) [Compound 53-A] | ≤ 20
Cc1cc(-n2nc3c(c2-n2ccn(-c4ccc5c(cnn5C)c4F)c2=O)[C@H](C)N(C(=O)c2cc4cc([C@H]5CCOC(C)(C)C5)ccc4n2[C@@]2(c4noc(=O)[nH]4)C[C@@H]2C)CC32C[C@@H]2C)cc(C)c1F (stereo partly shown) [Compound 227] | 20 to 100
Cc1cc(-n2nc3c(c2-n2ccn(-c4ccc5c(cnn5C)c4F)c2=O)[C@H](C)N(C(=O)c2cc4cc([C@H]5CCOC(C)(C)C5)ccc4n2[C@@]2(c4noc(=O)[nH]4)C[C@@H]2C)CC32CC=CCC2)cc(C)c1F (stereo partly shown) [Compound 203] | ≤ 20
Cc1cc(-n2nc3c(c2-n2ccn(-c4ccc5c(cnn5C)c4F)c2=O)[C@H](C)N(C(=O)c2cc4cc(N5CCOC(C)(C)C5)ccc4n2[C@@]2(c4noc(=O)[nH]4)C[C@@H]2C)CC32CC2)cc(C)c1F [Compound 173] | 20 to 100
Cc1cc(-n2nc3c(c2-n2ccn(-c4ccc5c(cnn5C)c4F)c2=O)[C@H](C)N(C(=O)c2cc4cc([C@H]5CCOC(C)(C)C5)ccc4n2[C@@]2(c4noc(=O)[nH]4)C[C@@H]2C)CC32CCC(F)(F)CC2)cc(C)c1F [Compound 200] | 20 to 100
CNC1CC2(C1)CN(C(=O)c1cc3cc([C@H]4CCOC(C)(C)C4)ccc3n1[C@@]1(c3noc(=O)[nH]3)C[C@@H]1C)[C@@H](C)c1c2nn(-c2cc(C)c(F)c(C)c2)c1-n1ccn(-c2ccc3c(cnn3C)c2F)c1=O (stereo partly shown) [Compound 220] | ≤ 20
Cc1cc(-n2nc3c(c2-n2ccn(-c4ccc5c(cnn5C)c4F)c2=O)[C@H](C)N(C(=O)c2cc4cc([C@H]5CCOC(C)(C)C5)ccc4n2[C@@]2(c4noc(=O)[nH]4)C[C@@H]2C)CC32CCNC2)cc(C)c1F (stereo partly shown) [Compound 195] | ≤ 20
Cc1cc(-n2nc3c(c2-n2ccn(-c4ccc5c(cnn5C)c4F)c2=O)[C@H](C)N(C(=O)c2cc4cc([C@H]5CCOC(C)(C)C5)ccc4n2[C@@]2(c4noc(=O)[nH]4)C[C@@H]2C)CC32CCN(C(=O)[C@H](C)N)CC2)cc(C)c1F [Compound 160] | ≤ 20
CCOC1CC2(C1)CN(C(=O)c1cc3cc([C@H]4CCOC(C)(C)C4)ccc3n1[C@@]1(c3noc(=O)[nH]3)C[C@@H]1C)[C@@H](C)c1c2nn(-c2cc(C)c(F)c(C)c2)c1-n1ccn(-c2ccc3c(cnn3C)c2F)c1=O (stereo partly shown) [Compound 187] | ≤ 20
CNC1CCC2(C1)CN(C(=O)c1cc3cc([C@H]4CCOC(C)(C)C4)ccc3n1[C@@]1(c3noc(=O)[nH]3)C[C@@H]1C)[C@@H](C)c1c2nn(-c2cc(C)c(F)c(C)c2)c1-n1ccn(-c2ccc3c(cnn3C)c2F)c1=O (stereo partly shown) [Compound 229] | ≤ 20
Cc1cc(-n2nc3c(c2-n2ccn(-c4ccc5c(cnn5C)c4F)c2=O)[C@H](C)N(C(=O)c2cc4cc([C@H]5CCOC(C)(C)C5)ccc4n2[C@@]2(c4noc(=O)[nH]4)C[C@@H]2C)CC32CCCCO2)cc(C)c1F (stereo partly shown) [Compound 39] | ≤ 20
COC(=O)N1CCC2(CC1)CN(C(=O)c1cc3cc([C@H]4CCOC(C)(C)C4)ccc3n1[C@@]1(c3noc(=O)[nH]3)C[C@@H]1C)[C@@H](C)c1c2nn(-c2cc(C)c(F)c(C)c2)c1-n1ccn(-c2ccc3c(cnn3C)c2F)c1=O [Compound 159] | ≤ 20
Cc1cc(-n2nc3c(c2-n2ccn(-c4ccc5c(cnn5C)c4F)c2=O)[C@H](C)N(C(=O)c2cc4cc([C@H]5CCOC(C)(C)C5)ccc4n2[C@@]2(c4noc(=O)[nH]4)C[C@@H]2C)CC32CC(F)C2)cc(C)c1F (stereo partly shown) [Compound 182] | ≤ 20

Source: patent US12419874B2, “GLP-1R agonist compound and use thereof” (Chongqing Pharmaceutical Research Institute Co., Ltd., priority 2024, dated 2025)
